Tested on: hyperhomocysteinemic rats subjected to MCAO
Experiment: Cylinder test after MCAO
Assay type: in vivo, male Wistar rats
Details: HHcy rats, day 8 after MCAO, NVP-AAM077 1.2 mg/kg; untreated HHcy 24.24±2.37%
Experimental: All rats were subjected to a battery of behavioral tests on day 7 (CatWalk), day 8 (cylinder and rotarod tests) and day 9 (adhesive test) after MCAO to evaluate normal gait, motor coordination and sensory motor functions. Habituation and training (3 days) was performed for one week before MCAO. The first two trainings days were before osmotic pump implantation and the third training day was after pump implantation. An experienced observer blinded to the experimental conditions evaluated all behavioral parameters.
Cylinder test: Control, hyperhomocysteinemic and NVP-AAM077 treated hyperhomocysteinemic rats were subjected to cylinder test to assess the post-stroke asymmetry in fore-limb use (Balkaya, 2013, J Cereb Blood Flow Metab 33:330-338). The rats were placed individually inside a transparent plexiglass cylinder (diameter 20 cm, height 45 cm). A vertical exploration movement with either the left or right forelimb along the wall was scored as contact of each paw with the glass wall for a total period of 2 minutes. Simultaneous contact by both paws was scored separately. Two trials (10 min rest between trials) were recorded and the percentage use of the affected fore limb was calculated (Liu et al., 2013, Behav Brain Res 257:166-177; Schaar et al., 2010, Exp Transl Stroke Med 2:13).

C[C@H](NC(c1cccc2[nH]c(=O)c(=O)[nH]c12)P(=O)(O)O)c1ccc(Br)cc1 (stereo partly drawn) [NVP-AAM077, ({[(1S)-1-(4-bromophenyl)ethyl]amino}-(2,3-dioxo-1,4-dihydroquinoxalin-5-yl)methyl)phosphonic acid]
spontaneous usage of the affected forepaw: 40.51±1.86%
